Measured values from paper PMC9490236, “Accurate de novo design of membrane-traversing macrocycles” (Cell, 2022).
Where a SMILES comes first, the peptide text is derived from it. [ ]: non-standard residue; d: D form. NMeF = CN[C@@H](Cc1ccccc1)C(=O)O; dNMeF = CN[C@H](Cc1ccccc1)C(=O)O; NMeL = CN[C@@H](CC(C)C)C(=O)O; dNMeL = CN[C@H](CC(C)C)C(=O)O; dNMeV = CN[C@@H](C(=O)O)C(C)C; NMeM = CN[C@@H](CCSC)C(=O)O; NMeV = CN[C@H](C(=O)O)C(C)C; Nle = CCCC[C@H](N)C(=O)O; dNMeA = CN[C@H](C)C(=O)O; Sar = CNCC(=O)O

details: PAMPA

| Compound | PAMPA_Papp_Avg | PAMPA_R1 | PAMPA_R3 |
| --- | --- | --- | --- |
| CC(C)C[C@H]1C(=O)N2CCC[C@@H]2C(=O)N[C@@H](Cc2ccccc2)C(=O)N2CCC[C@H]2C(=O)N[C@H](C(C)C)C(=O)N[C@H](Cc2ccccc2)C(=O)N1C (single isomer, unassigned) [Design D6.9.p2, DVAL DPHE *LEU DPRO PHE PRO] | 6.77e-06 cm/s | 6.03e-06 cm/s | 8.48e-06 cm/s |
| PRO DPRO DPHE *DLEU *DPHE DLEU ILE PRO *DLEU LEU [Design D10.15] | BQL | BQL | BQL |
| CC(C)C[C@@H]1NC(=O)[C@@H](C(C)C)NC(=O)[C@@H]2CCCN2C(=O)[C@H]2CCCN2C(=O)[C@H](Cc2ccccc2)NC(=O)[C@@H](C)NC(=O)[C@@H](CC(C)C)N(C)C(=O)[C@@H]2CCCN2C(=O)[C@H]2CCCN2C(=O)[C@@H](C(C)C)NC(=O)[C@@H](C)N(C)C1=O [Design D11.12, DVAL DPRO PRO *DLEU DALA PHE DPRO PRO DVAL LEU *DALA] (cyclo([dNMeL][dA]F[dP]P[dV]L[dNMeA][dV][dP]P)) | BQL | BQL | BQL |
| CC[C@H](C)[C@@H]1NC(=O)[C@@H]2CCCN2C(=O)[C@H]2CCCN2C(=O)[C@@H](CC(C)C)NC(=O)[C@@H](CC(C)C)N(C)C(=O)[C@@H]2CCCN2C(=O)[C@H](Cc2ccccc2)N(C)C(=O)[C@@H](Cc2ccc(O)cc2)NC1=O [Design D8.13, PRO ILE DTYR *PHE PRO *DLEU DLEU DPRO] (cyclo(I[dY][NMeF]P[dNMeL][dL][dP]P)) | BQL | BQL | BQL |
| CC(C)C[C@@H]1NC(=O)[C@@H]2CCCN2C(=O)[C@@H](Cc2ccccc2)N(C)C(=O)[C@H](CC(C)C)N(C)C(=O)[C@H](CC(C)C)N(C)C(=O)[C@@H](CC(C)C)N(C)C(=O)[C@H](C)NC(=O)[C@H](C(C)C)NC(=O)CNC(=O)[C@H](Cc2ccccc2)NC1=O [Design D10.24, PHE GLY VAL ALA *DLEU *LEU *LEU *DPHE PRO LEU] (cyclo(A[dNMeL][NMeL][NMeL][dNMeF]PLFGV)) | BQL | BQL | BQL |
| PRO DPRO DALA DPHE DLEU ILE DPHE *DALA LEU PRO NLE [Design D11.14.p2] | BQL | BQL | BQL |
| CC(C)C[C@H]1NC(=O)[C@H]2CCCN2C(=O)[C@@H]2CCCN2C(=O)[C@@H](Cc2ccccc2)NC(=O)[C@@H](C(C)C)NC(=O)[C@H](CC(C)C)N(C)C(=O)[C@@H](Cc2ccccc2)NC1=O (single isomer, unassigned) [Design D7.7.p2, PRO DPRO DLEU DPHE *LEU DVAL DPHE] | 9.06e-06 cm/s | 7.93e-06 cm/s | 1.17e-05 cm/s |
| CC[C@H](C)[C@@H]1NC(=O)[C@H](CCSC)N(C)C(=O)[C@H]2CCCN2C(=O)[C@H](CC(C)C)NC(=O)[C@@H](Cc2ccccc2)NC(=O)[C@@H]2CCCN2C(=O)[C@H]2CCCN2C(=O)[C@H]([C@@H](C)CC)NC(=O)[C@@H](CC(C)C)N(C)C(=O)[C@H](CC(C)C)N(C)C1=O [Design D10.36, ILE *LEU *DLEU ILE DPRO PRO DPHE LEU DPRO *MET] (cyclo([dF]L[dP][NMeM]I[NMeL][dNMeL]I[dP]P)) | BQL | BQL | BQL |
| CC(C)[C@@H]1NC(=O)[C@H](C)NC(=O)[C@H]2CCCN2C(=O)[C@@H](Cc2ccccc2)NC(=O)[C@H]2CCCN2C(=O)[C@@H]2CCCN2C(=O)[C@H](Cc2ccccc2)NC(=O)[C@H](C)NC(=O)[C@H]2CCCN2C1=O [Design D9.36, VAL DPRO ALA PHE PRO DPRO DPHE DPRO ALA] (cyclo(AFP[dP][dF][dP]AV[dP])) | BQL | BQL | BQL |
| CC(C)C[C@@H]1NC(=O)[C@@H](Cc2ccccc2)NC(=O)[C@@H]2CCCN2C(=O)[C@H]2CCCN2C(=O)[C@@H]2CCCN2C(=O)[C@H](C)NC(=O)[C@H](Cc2ccccc2)N(C)C(=O)[C@H]2CCCN2C(=O)[C@@H](CC(C)C)NC(=O)[C@@H](C(C)C)NC1=O [Design D10.54, DVAL DLEU DPRO *PHE ALA PRO DPRO PRO DPHE LEU] (cyclo([dF]L[dV][dL][dP][NMeF]AP[dP]P)) | BQL | BQL | BQL |
| CCCC[C@@H]1NC(=O)[C@@H]2CCCN2C(=O)[C@@H](C(C)C)NC(=O)[C@@H](C)N(C)C(=O)[C@@H](CC(C)C)NC(=O)[C@@H](CC(C)C)NC(=O)[C@@H]2CCCN2C(=O)[C@H]2CCCN2C1=O [Design D8.29, MET DPRO PRO DLEU DLEU *DALA DVAL PRO] (cyclo([dL][dL][dNMeA][dV]P[Nle][dP]P)) | 3.60E-07 | 3.98E-07 | 3.61E-07 |
| CC[C@H](C)[C@@H]1NC(=O)[C@H](C)NC(=O)[C@H](CC(C)C)NC(=O)[C@@H]2CCCN2C(=O)[C@@H](C(C)C)NC(=O)[C@H](CC(C)C)NC(=O)[C@@H]2CCCN2C(=O)[C@H]2CCCN2C(=O)[C@H](C)NC(=O)[C@H](Cc2ccccc2)NC(=O)[C@@H](CC(C)C)NC(=O)[C@H]2CCCN2C1=O [Design D12.8, PHE ALA DPRO PRO LEU DVAL PRO LEU ALA ILE DPRO DLEU] (cyclo(L[dV]PLAI[dP][dL]FA[dP]P)) | BQL | BQL | BQL |
| CC[C@H](C)[C@@H]1NC(=O)[C@@H](C)N(C)C(=O)[C@@H](C)N(C)C(=O)[C@H](C(C)C)NC(=O)[C@H]2CCCN2C(=O)[C@@H]2CCCN2C(=O)[C@H](C(C)C)NC(=O)[C@H]2CCCN2C(=O)[C@@H]2CCCN2C1=O [Design D9.12, PRO DPRO VAL PRO DPRO VAL *DALA *DALA ILE] (cyclo(IP[dP]VP[dP]V[dNMeA][dNMeA])) | BQL | BQL | BQL |
| CC[C@H](C)[C@@H]1NC(=O)[C@@H]2CCCN2C(=O)[C@H](C)NC(=O)[C@@H](Cc2ccccc2)N(C)C(=O)[C@H](C)NC(=O)[C@@H]2CCCN2C(=O)[C@@H](Cc2ccccc2)N(C)C(=O)[C@H](Cc2ccccc2)N(C)C(=O)[C@H](CC(C)C)N(C)C(=O)[C@@H](C(C)C)NC1=O [Design D10.52, ILE DVAL *LEU *PHE *DPHE PRO ALA *DPHE ALA PRO] (cyclo(API[dV][NMeL][NMeF][dNMeF]PA[dNMeF])) | BQL | BQL | BQL |
| CC(C)C[C@H]1NC(=O)[C@@H]2CCCN2C(=O)[C@H]2CCCN2C(=O)[C@H](C(C)C)NC(=O)[C@@H](CC(C)C)NC(=O)[C@@H]2CCCN2C(=O)[C@H]2CCCN2C(=O)[C@H](C(C)C)NC1=O (single isomer, unassigned) [Design D8.12.p2, DLEU VAL DPRO PRO DLEU VAL DPRO PRO] | 2.00E-07 | 1.77E-07 | 2.25E-07 |
| DPRO PRO *DLEU DALA PRO *DLEU ALA *GLY *DVAL DPHE [Design D10.7] | BQL | BQL | BQL |
| CC(C)C[C@H]1C(=O)N[C@@H](C)C(=O)N(C)CC(=O)N2CCC[C@@H]2C(=O)N(C)[C@@H](C(C)C)C(=O)N[C@@H](C(C)C)C(=O)N2CCC[C@H]2C(=O)N2CCC[C@@H]2C(=O)N[C@@H](C)C(=O)N[C@H](C(C)C)C(=O)N1C [Design D10.66, PRO DPRO ALA DVAL *LEU ALA *GLY DPRO *VAL VAL] (cyclo(A[Sar][dP][NMeV]VP[dP]A[dV][NMeL])) | BQL | BQL | BQL |
| CC[C@@H](C)[C@H]1NC(=O)[C@@H]2CCCN2C(=O)[C@H]2CCCN2C(=O)[C@@H](CC(C)C)NC(=O)[C@@H](C)N(C)C(=O)[C@H]2CCCN2C(=O)[C@H]2CCCN2C(=O)[C@H](C(C)C)NC1=O [Design D8.24, DPRO PRO DILE VAL DPRO DPRO *DALA DLEU] (cyclo([dI]V[dP][dP][dNMeA][dL][dP]P)) | BQL | BQL | BQL |
| CC(C)C[C@@H]1C(=O)N[C@H](C(C)C)C(=O)N[C@@H](C)C(=O)N2CCC[C@H]2C(=O)N2CCC[C@H]2C(=O)N[C@@H](C)C(=O)N2CCC[C@@H]2C(=O)N[C@@H](Cc2ccccc2)C(=O)N2CCC[C@H]2C(=O)N[C@@H](C(C)C)C(=O)N1C [Design D10.53, ALA DPRO PHE PRO VAL *DLEU DVAL ALA PRO PRO] (cyclo(APPA[dP]FPV[dNMeL][dV])) | BQL | BQL | BQL |
| *DPHE *LEU PRO DLEU VAL *DLEU PRO DILE *ALA *ALA [Design D10.65] | BQL | BQL | BQL |
| CC[C@H](C)[C@@H]1NC(=O)[C@@H](CC(C)C)NC(=O)[C@H]2CCCN2C(=O)[C@@H]2CCCN2C(=O)[C@H](C)NC(=O)[C@H]2CCCN2C(=O)[C@@H]2CCCN2C(=O)[C@H](C)NC(=O)[C@@H](C(C)C)N(C)C1=O [Design D9.37, DPRO DLEU ILE *DVAL ALA PRO DPRO ALA PRO] (cyclo(AP[dP]AP[dP][dL]I[dNMeV])) | BQL | BQL | BQL |
| CC(C)[C@@H]1C(=O)N[C@@H](Cc2ccccc2)C(=O)N2CCC[C@H]2C(=O)N(C)[C@H](Cc2ccccc2)C(=O)N[C@H](C)C(=O)N2CCC[C@H]2C(=O)N1C (single isomer, unassigned) [Design D6.8.p2, *DPHE DALA PRO *DVAL PHE PRO] | 1.77e-06 cm/s | 1.92e-06 cm/s | 1.94e-06 cm/s |
| CC[C@@H](C)[C@H]1NC(=O)[C@H](CC(C)C)NC(=O)[C@H](CC(C)C)N(C)C(=O)[C@H]2CCCN2C(=O)[C@@H](CC(C)C)NC(=O)[C@@H]2CCCN2C(=O)[C@H](CC(C)C)N(C)C(=O)[C@@H](Cc2ccccc2)N(C)C(=O)[C@H](CC(C)C)N(C)C(=O)[C@H](CC(C)C)N(C)C1=O [Design D10.12, *LEU LEU DILE *LEU *LEU *DPHE *LEU PRO DLEU DPRO] (cyclo(L[dI][NMeL][NMeL][dNMeF][NMeL]P[dL][dP][NMeL])) | BQL | BQL | BQL |
